Values after ≈ are worked out from the molar mass of the structure shown.
What was measured:
[1] = system: mouse leukemia P388 cells; test: Antitumor activity, growth inhibition of mouse leukemia P388 cells; assay type: cell-based
Description: In this way, such concentration of the tested compound which can inhibit the growth of the P388 cells by 50%, that is, the IC50 -value of the tested compound against the P388 cells was estimated. For comparison purpose, Bellenamine was tested in the same manner as above.

P. rettgeri GN466 = test: Antibacterial activity, MIC by serial dilution method; assay type: cell-based; conditions: Providencia rettgeri, 0.5% peptone agar, 37° C., 18 hours
P. mirabilis IFM OM-9 = test: as above; assay type: cell-based; conditions: Proteus mirabilis, IFMOM9, 0.5% peptone agar, 37° C., 18 hours
Micrococcus luteus FDA16 = test: as above; assay type: cell-based; conditions: 0.5% peptone agar, 37° C., 18 hours
[2] = system: Providencia rettgeri GN311; test: as above; assay type: cell-based; conditions: 0.5% peptone agar, 37° C., 18 hours
Proteus vulgaris OX19 = test: as above; assay type: cell-based; conditions: 0.5% peptone agar, 37° C., 18 hours
B. subtilis NRRL B-558 = test: as above; assay type: cell-based; conditions: Bacillus subtilis, NRRLB558, 0.5% peptone agar, 37° C., 18 hours
S. flexnelli 4b JS1811 = test: as above; assay type: cell-based; conditions: 0.5% peptone agar, 37° C., 18 hours
Description: The minimum inhibitory concentrations (MIC.) of (R)-3,6-diamino-N-(2-aminoethyl)hexanamide of the formula (Ia) and (R)-3,6-diamino-N-(3-aminopropyl)hexanamide of the formula (Ib) against the growth of various bacteria were determined by a serial dilution method on a 0.5% peptone agar medium (incubated at 37° C. for 18 hours). The results obtained are shown in Table 1 below, in comparison with the MIC. of D-β-lysylmethanediamine (Bellenamine).

[3] = system: Klebsiella pneumoniae PCI602; test: as above; assay type: cell-based; conditions: 0.5% peptone agar, 37° C., 18 hours
[4] = system: Shigella dysenteriae JS11910; test: as above; assay type: cell-based; conditions: JS11910, 18 h
B. subtilis PC1219 = test: as above; assay type: cell-based; conditions: Bacillus subtilis, 0.5% peptone agar, 37° C., 18 hours
MT-4 cells = test: Cytotoxicity to MT-4 cells; assay type: cell-based, human; design: key: -: That the cytotoxicity was not observed; conditions: absence of HIV
Description: Furthermore, cytotoxicity of the tested compound to the MT-4 cells was estimated. This was done by incubating the MT-4 cells at varying concentrations of the tested compound and in the absence of HIV but in the same manner of incubation and under the same conditions of incubation of MT-4 cells as those employed in the above-mentioned test procedures of assaying the activity of the tested compound to inhibit the infection of T-cells with HIV. That the cytotoxicity was not observed is represented by the symbol "-" in Table 2 below.

Serratia marcescens = test: Antibacterial activity, MIC by serial dilution method; assay type: cell-based; conditions: 0.5% peptone agar, 37° C., 18 hours
B. cereus ATCC10702 = test: as above; assay type: cell-based; conditions: Bacillus cereus, 0.5% peptone agar, 37° C., 18 hours
[5] = system: Pseudomonas aeruginosa A3; test: as above; assay type: cell-based; conditions: 0.5% peptone agar, 37° C., 18 hours
[6] = system: Staphylococcus aureus FDA209P; test: as above; assay type: cell-based; conditions: 0.5% peptone agar, 37° C., 18 hours
S. aureus Smith = test: as above; assay type: cell-based; conditions: Staphylococcus aureus, 0.5% peptone agar, 37° C., 18 hours
Bacillus anthracis = test: microbe, parasite or virus in culture; assay type: cell-based; conditions: 18 h
HIV (HTLV-IIIB strain) = test: microbe, parasite or virus in culture; assay type: cell-based; conditions: Human immunodeficiency virus 1, IIIB, MT4, 96 h, MT-4 cells, 4 days, 90 at 0 μg/ml, read-out: Rate (%) of presence of HIV antigen-positive cells; for activity at 0.1 µg/mL: 0.1 μg/ml; for activity at 1 µg/mL: 1 μg/ml; for activity at 10 µg/mL: 10 μg/ml
Escherichia coli NIHJ = test: Antibacterial activity, MIC by serial dilution method; assay type: cell-based; conditions: 0.5% peptone agar, 37° C., 18 hours
E. coli K-12 = test: as above; assay type: cell-based; conditions: Escherichia coli, K12, 0.5% peptone agar, 37° C., 18 hours
Solubility = assay type: physicochemical; conditions: in water
mice = test: Acute toxicity by intravenous injection to mice; assay type: in vivo; conditions: 250 mg/kg

Compound	IC50 [1]	MIC (P. rettgeri GN466)	MIC (P. mirabilis IFM OM-9)	MIC (Micrococcus luteus FDA16)	MIC [2]	MIC (Proteus vulgaris OX19)	MIC (B. subtilis NRRL B-558)	MIC (S. flexnelli 4b JS1811)	MIC [3]	MIC [4]	MIC (B. subtilis PC1219)	Cytotoxicity (given in brackets) (MT-4 cells; 0.1 μg/ml)	Cytotoxicity (given in brackets) (MT-4 cells; 1 μg/ml)	Cytotoxicity (given in brackets) (MT-4 cells; 10 μg/ml)	MIC (Serratia marcescens)	MIC (B. cereus ATCC10702)	MIC [5]	MIC [6]	MIC (S. aureus Smith)	MIC (Bacillus anthracis)	also measured
NCCC[C@@H](N)CC(=O)NCN [Bellenamine, D-β-lysylmethanediamine]	0.36 µg/mL (≈ 2.07 µM)	100 µg/mL (≈ 574 µM)	200 µg/mL (≈ 1150 µM)	> 200 µg/mL	50 µg/mL (≈ 287 µM)	> 200 µg/mL	12.5 µg/mL (≈ 71.7 µM)	> 200 µg/mL	> 200 µg/mL	> 200 µg/mL	12.5 µg/mL (≈ 71.7 µM)	-	-	-	200 µg/mL (≈ 1150 µM)	50 µg/mL (≈ 287 µM)	200 µg/mL (≈ 1150 µM)	50 µg/mL (≈ 287 µM)	6.25 µg/mL (≈ 35.9 µM)	100 µg/mL (≈ 574 µM)	activity at 0.1 µg/mL (HIV (HTLV-IIIB strain)): 50%; activity at 1 µg/mL (HIV (HTLV-IIIB strain)): 5%; activity at 10 µg/mL (HIV (HTLV-IIIB strain)): 10%; MIC (Escherichia coli NIHJ): 200 µg/mL (≈ 1150 µM); MIC (E. coli K-12): > 200 µg/mL
NCCC[C@@H](N)CC(=O)NCCN [Compound (Ia), (R)-3,6-diamino-N-(2-aminoethyl)hexanamide]	0.012 µg/mL (≈ 0.0637 µM)	50 µg/mL (≈ 266 µM)	25 µg/mL (≈ 133 µM)	> 200 µg/mL	25 µg/mL (≈ 133 µM)	200 µg/mL (≈ 1060 µM)	25 µg/mL (≈ 133 µM)	100 µg/mL (≈ 531 µM)	200 µg/mL (≈ 1060 µM)	200 µg/mL (≈ 1060 µM)	25 µg/mL (≈ 133 µM)	-	-	-	100 µg/mL (≈ 531 µM)	50 µg/mL (≈ 266 µM)	100 µg/mL (≈ 531 µM)	25 µg/mL (≈ 133 µM)	6.25 µg/mL (≈ 33.2 µM)	100 µg/mL (≈ 531 µM)	Solubility (Solubility): highly soluble in water; Acute toxicity (death of mice) (mice): did not cause death of mice; activity at 0.1 µg/mL (HIV (HTLV-IIIB strain)): 90%; activity at 1 µg/mL (HIV (HTLV-IIIB strain)): 80%; activity at 10 µg/mL (HIV (HTLV-IIIB strain)): 30%; MIC (Escherichia coli NIHJ): 100 µg/mL (≈ 531 µM); MIC (E. coli K-12): 200 µg/mL (≈ 1060 µM)
NCCCNC(=O)C[C@H](N)CCCN [Compound (Ib), (R)-3,6-diamino-N-(3-aminopropyl)hexanamide]	0.028 µg/mL (≈ 0.138 µM)	50 µg/mL (≈ 247 µM)	50 µg/mL (≈ 247 µM)	> 200 µg/mL	100 µg/mL (≈ 494 µM)	200 µg/mL (≈ 989 µM)	100 µg/mL (≈ 494 µM)	200 µg/mL (≈ 989 µM)	> 200 µg/mL	200 µg/mL (≈ 989 µM)	100 µg/mL (≈ 494 µM)	-	-	-	200 µg/mL (≈ 989 µM)	200 µg/mL (≈ 989 µM)	200 µg/mL (≈ 989 µM)	200 µg/mL (≈ 989 µM)	50 µg/mL (≈ 247 µM)	200 µg/mL (≈ 989 µM)	Solubility (Solubility): highly soluble in water; Acute toxicity (death of mice) (mice): did not cause death of mice; activity at 0.1 µg/mL (HIV (HTLV-IIIB strain)): 80%; activity at 1 µg/mL (HIV (HTLV-IIIB strain)): 10%; activity at 10 µg/mL (HIV (HTLV-IIIB strain)): 5%; MIC (Escherichia coli NIHJ): 200 µg/mL (≈ 989 µM); MIC (E. coli K-12): 200 µg/mL (≈ 989 µM)
